In patent US20250195342A1, “DRY COMPOSITIONS AND METHODS FOR FORMING STABLE LIQUID CLEANSING FORMULATIONS” (Conopco, Inc., d/b/a UNILEVER, priority 2022, published 2025):

Description: Silver ion solubility, as referred to herein, is a value derived from a solubility product (Ksp) in water at 25 degrees centigrade, a well known parameter that is reported in numerous sources.

| Compound | Silver Ion Solubility [Ag+] |
| --- | --- |
| [Br][Ag] [Silver bromide] | Silver bromide 1 5.3 × 10−^13 7.3 × 10″^7 mol/L |
| [Cl][Ag] [Silver chloride] | 1.3 × 10″^5 mol/L |
